The values below come from patent US9227935B2, “Piperidine/piperazine derivatives” (Janssen Pharmaceutica N.V., priority 2007, dated 2016).

For the assay, the target named is T1, human DGAT1 (Homo sapiens, UniProt O75907).
T1 construct: FLAG (N); made in house; host or cells: SF9 insect cells (baculovirus, pFastBac); total cell membranes used as the enzyme source
T1 sequence (O75907 1-488): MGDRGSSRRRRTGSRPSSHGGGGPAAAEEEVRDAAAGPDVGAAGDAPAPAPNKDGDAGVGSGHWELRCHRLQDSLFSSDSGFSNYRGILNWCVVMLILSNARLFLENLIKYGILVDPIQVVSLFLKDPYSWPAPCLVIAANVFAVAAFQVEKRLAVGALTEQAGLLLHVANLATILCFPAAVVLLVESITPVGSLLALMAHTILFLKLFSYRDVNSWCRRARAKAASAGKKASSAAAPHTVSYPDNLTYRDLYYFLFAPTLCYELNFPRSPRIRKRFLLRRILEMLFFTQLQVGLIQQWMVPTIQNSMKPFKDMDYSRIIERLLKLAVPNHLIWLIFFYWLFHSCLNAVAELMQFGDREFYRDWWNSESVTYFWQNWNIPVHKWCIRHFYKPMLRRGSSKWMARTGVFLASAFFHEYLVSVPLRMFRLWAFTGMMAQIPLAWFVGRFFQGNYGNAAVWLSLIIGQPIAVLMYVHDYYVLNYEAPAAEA
Briefly: DGAT1 FlashPlate inhibition assay with DGAT1 membrane preparations. In kind it is biochemical. The note with it: IC50 values expressed in M; pIC50 = -logIC50; inhibition of DGAT1 activity. The text has this:
The inhibiting activity of the present compounds on DGAT1 activity was screened in a single well procedure assay using DGAT1 comprising membrane preparations and DGAT1 substrate comprising micelles and determining formed radio-active triacylglycerol coming in close proximity of a flashplate surface by radioluminescence.
Said assay is described in full detail in WO2006/067071, the content of which is incorporated herein by reference.
By DGAT1 activity is meant the transfer of coenzyme A activated fatty acids to the 3-position of 1,2-diacylglycerols, thus forming a triglyceride molecule, by enzyme DGAT1.
human DGAT1 (NM012079.2) was cloned into the pFastBac vector, containing translation start, a FLAG-tag at the N-terminus as described in literature and a viral Kozak sequence (AAX) preceding the ATG to improve expression in insect cells. Expression was done as described in literature (Cases, S., Smith, S. J., Zheng, Y., Myers H. M., Lear, S. R., Sande, E., Novak, S., Collins, C., Welch, C. B., Lusis, A. J., Erickson, S. K. and Farese, R. V. (1998) Proc. Natl. Acad. Sci. USA 95, 13018-13023.) using SF9 cells.
72 h transfected SF9 cells were collected by centrifugation (13000 rpm-15 min-4° C.) and lysed in 2×500 ml lysis buffer (0.1M Sucrose, 50 mM KCl, 40 mM KH2PO4, 30 mM EDTA pH 7.2. Cells were homogenized by cell disruptor. After centrifugation 1380 rpm-15 min-4° C. (SN discarded), pellet was resuspended in 500 ml lysis buffer and total cell membranes collected by ultracentrifugation at 34000 rpm (100 000 g) for 60 min (4° C.). The collected membranes were resuspended in lysis buffer, divided in aliquots and stored with 10% glycerol at −80° C. until use.
Add 1 ml dioleoyl-sn-glycerol (10 mg/ml) to 10 ml of L-α-phosphatidylcholine (1 mg/ml) and 10 ml of L-α-phosphatidyl-L-serine (1 mg/ml) in a thick glass recipient. Evaporate under nitrogen and put on ice for 15 minutes. Reconstitute in 10 ml Tris/HCl (10 mM, pH 7.4) by sonication on ice. The sonification process consists of sonification cycles of 10 seconds in the sonification bath followed by 10 seconds cool down on ice and repeating this sonification cycle till a homogeneous solution is obtained (takes about 15 minutes). The thus obtained micelles are stored at −20° C. till later use and contain DAG at a final concentration of 1.61 mM.
• 50 mM Tris-HCl (pH 7.4), 150 mM MgCl2, 1 mM EDTA, 0.2% BSA. b) N-ethylmaleimide, 5M • Dissolve 5 g into a final volume of 8 ml DMSO 100% and store at −20° C. in aliquots till later use. c) Substrate mix (for 1 384 well plate=3840 μl) • 612 μl micelles stock (51 μM final) • 16.6 μl oleoylCoA 9.7 mM • 23 μl [^3H]-oleoylCoA (49 Ci/mmol, 500 μCi/ml) • 3188.4 μl Tris pH 7.4, 10 mM d) Enzyme mix (for 1 384 well plate=3520 μl) (5 μg/ml) • Add 11.73 μl of DGAT membrane stock (1500 μg/ml stock) to 3508 μl assay buffer. e) Stop mix (for 1 384 well plate=7.68 ml) (250 mM) • Add 384 μl of N-ethylmaleimide (5M) to 3.456 ml DMSO 100%, and further dilute 3.84 ml of said solution with 3.84 ml DMSO 10%. Method
DGAT activity in membrane preparations was assayed in 50 mM Tris-HCl (pH 7.4), 150 mM MgCl2, 1 mM EDTA and 0.2% BSA, containing 50 μM DAG, […] PC/PS and 8.4 μM [^3H]-oleoylCoA (at a specific activity of 30 nCi/well) in a final volume of 50 μl in 384-well format using the red shifted Basic Image FlashPlate™ (Perkin Elmer Cat. No. SMP400).
In detail, 10 μl enzyme mix and 10 μl substrate mix were added to 30 μl of assay buffer, optionally in the presence of 1 μl DMSO (blank and controls) or 1 μl of the compound to be tested. This reaction mixture was incubated for 120 minutes at 37° C. and the enzymatic reaction stopped by adding 20 μl of the stop mix. The plates were sealed and the vesicles allowed to settle overnight at room temperature. Plates were centrifuged for 5 minutes at 1500 rpm and measured in Leadseeker. […]
One may read the IC50 as the concentration at which inhibition is half-maximal. In turn, `O=C(Nc1ccc(N2CCN(C(=O)Nc3c(Cl)cccc3Cl)CC2)cc1)c1ccc(N2CCOCC2)cc1` [Compound 38] showed an IC50 of 0.011 µM.
Under `Cc1cc(Br)cc(C)c1NC(=O)N1CCC(c2ccc(NC(=O)c3ccccc3-c3ccc(C(F)(F)F)cc3)cc2)CC1` [Compound 115] stands 1.95 µM; under `CCc1ccccc1NC(=O)N1CCC(c2ccc(NC(=O)c3ccccc3-c3ccc(C(F)(F)F)cc3)cc2)CC1` [Compound 108], 4.47 µM; under `CN(C)c1ccc(NC(=O)N2CC=C(c3ccc(NC(=O)c4ccccc4-c4ccc(C(F)(F)F)cc4)cc3)CC2)cc1` [Compound 124], 6.76 µM.
Under `O=C(Nc1ccc(N2CCN(C(=O)Nc3ccc4c(c3)OCCO4)CC2)cc1)c1ccccc1-c1ccc(C(F)(F)F)cc1` [Compound 106] stands 7.24 µM.
Under `O=C(Nc1ccc(N2CCN(C(=O)Nc3c(Cl)cc(Cl)cc3Cl)CC2)cc1)c1ccccc1-c1ccc(C(F)(F)F)cc1` [Compound 99] stands 1.82 µM; under `O=C(Nc1ccc(N2CCN(C(=O)Nc3ccccc3Cl)CC2)cc1)c1ccccc1-c1ccc(C(F)(F)F)cc1` [Compound 89], 1.7 µM.
For `CC(C)(C)NC(=O)N1CCN(c2ccc(NC(=O)c3ccccc3-c3ccc(C(F)(F)F)cc3)cc2)CC1` [Compound 69], 7.94 µM corresponded to half-maximal inhibition (IC50).
Next, `COc1cccc(OC)c1NC(=O)N1CCN(c2ccc(NC(=O)c3ccccc3-c3ccc(C(F)(F)F)cc3)cc2)CC1` [Compound 84]: 5.25 µM; `O=C(Nc1ccc(N2CCN(C(=O)Nc3c(Br)cc(Br)cc3Br)CC2)cc1)c1ccccc1-c1ccc(C(F)(F)F)cc1` [Compound 97]: 0.49 µM.
In the case of `O=C(Nc1ccc(N2CCN(C(=O)Nc3c(Cl)cccc3Cl)CC2)cc1)c1ccccc1-n1ccnc1` [Compound 22], the half-maximal inhibitory concentration (IC50) is 1.38 µM.
Next, `Cc1nc(C(=O)Nc2ccc(C3CCN(C(=O)Nc4c(Cl)cccc4Cl)CC3)cc2)c(-c2cccc(C(F)(F)F)c2)s1` [Compound 53]: 1.48 µM.
Next, `O=C(Nc1ccc(N2CCN(C(=O)Nc3c(Cl)cccc3Cl)CC2)cc1)c1cccc(N2CCCCS2(=O)=O)c1` [Compound 41]: 0.0191 µM; `Cc1cc(C)c(NC(=O)N2CCN(c3ccc(NC(=O)c4ccccc4-c4ccc(C(F)(F)F)cc4)cc3)CC2)c(Br)c1` [Compound 103]: 0.2 µM.
Under `O=C(Nc1ccc(N2CCN(C(=O)Nc3c(F)cc(F)cc3Br)CC2)cc1)c1ccccc1-c1ccc(C(F)(F)F)cc1` [Compound 96] stands 0.525 µM; under `CC(C)(C)OC(=O)N1CC(C(=O)Nc2ccc(C3CCN(C(=O)Nc4c(Cl)cccc4Cl)CC3)cc2)C1` [Compound 1], 0.00813 µM.
Regarding `O=C(Nc1ccc(N2CCN(C(=O)Nc3c(Cl)cccc3Cl)CC2)cc1)c1ccccc1-c1ccccc1` [Compound 34], the IC50 is 0.0204 µM.
`C=CCNC(=O)N1CCC(c2ccc(NC(=O)c3ccccc3-c3ccc(C(F)(F)F)cc3)cc2)CC1` [Compound 107] showed a concentration for half-maximal inhibition (IC50) of 2.45 µM. This IC50 is about 120-fold higher than that of the compound before.
Next, `CSc1ccccc1NC(=O)N1CCN(c2ccc(NC(=O)c3ccccc3-c3ccc(C(F)(F)F)cc3)cc2)CC1` [Compound 93]: 4.79 µM; `Cc1ccc([N+](=O)[O-])c(NC(=O)N2CCC(c3ccc(NC(=O)c4ccccc4-c4ccc(C(F)(F)F)cc4)cc3)CC2)c1C` [Compound 116]: 2.19 µM.
Next, `O=C(Nc1ccc(N2CCN(C(=O)Nc3c(Cl)cccc3Cl)CC2)cc1)c1ccc(-n2cnnc2)cc1` [Compound 29]: 0.776 µM.
In turn, `CCOC(=O)c1ccccc1NC(=O)N1CCN(c2ccc(NC(=O)c3ccccc3-c3ccc(C(F)(F)F)cc3)cc2)CC1` [Compound 87] had a half-inhibitory concentration (IC50) of 7.41 µM.
On to `CC(C)c1ccccc1NC(=O)N1CCN(c2ccc(NC(=O)c3ccccc3-c3ccc(C(F)(F)F)cc3)cc2)CC1` [Compound 77], for which the IC50 was 4.47 µM. This IC50 is about 1.7-fold lower than that of the compound before.
Next, `O=C(Nc1ccc(N2CCN(C(=O)Nc3c(Cl)cccc3Cl)CC2)cc1)c1ccc(-c2nnn[nH]2)cc1` [Compound 33]: 1.95 µM.
Next, `O=C(Nc1ccc(N2CCN(C(=O)Nc3c(Cl)cccc3Cl)CC2)cc1)c1cccc(N2CCCCC2)c1` [Compound 37]: 0.00174 µM.
Under `O=C(Nc1ccc(N2CCN(C(=O)c3c(Cl)cccc3Cl)CC2)cc1)c1ccccc1-c1ccc(C(F)(F)F)cc1` [Compound 6] stands 9.12 µM; under `O=C(Nc1ccc(N2CCN(C(=O)Nc3c(Cl)cccc3Cl)CC2)cc1)c1cccc(N2CCOCC2)c1` [Compound 40], 0.00661 µM.
Regarding `Cc1cccc(C)c1NC(=O)N1CCN(c2ccc(NC(=O)c3ccccc3-c3ccc(C(F)(F)F)cc3)cc2)CC1` [Compound 82], the IC50 was 0.269 µM. Against the preceding compound, the IC50 is about 41-fold higher.
Next, `Cc1cc(C)c(NC(=O)N2CCC(c3ccc(NC(=O)c4ccccc4-c4ccc(C(F)(F)F)cc4)cc3)CC2)c(Cl)c1` [Compound 117]: 0.316 µM.
`Cc1nc(-c2ccc(C(=O)Nc3ccc(N4CCN(C(=O)Nc5c(Cl)cccc5Cl)CC4)cc3)cc2)no1` [Compound 30] showed an IC50 of 0.00447 µM.
Under `O=C(Nc1ccc(N2CCN(C(=O)Nc3c(Cl)cccc3Cl)CC2)cc1)c1cccc(-c2ccco2)c1` [Compound 14] stands 0.000977 µM; under `O=C(Nc1ccc(N2CCN(C(=O)Nc3c(Cl)cccc3Cl)CC2)cc1)c1ccccc1-c1nnn[nH]1` [Compound 32], 3.31 µM; under `CC(C)(C)c1ccc(-c2ccccc2C(=O)Nc2ccc(C3CCN(C(=O)Nc4c(Cl)cccc4Cl)CC3)cc2)cc1` [Compound 62], 0.55 µM.
Next, `Cc1ccc(C)n1-c1cccc(C(=O)Nc2ccc(N3CCN(C(=O)Nc4c(Cl)cccc4Cl)CC3)cc2)c1` [Compound 20]: 0.0309 µM; `CCCNC(=O)N1CC=C(c2ccc(NC(=O)c3ccccc3-c3ccc(C(F)(F)F)cc3)cc2)CC1` [Compound 119]: 4.68 µM.
Next, `O=C(Nc1ccc(C2CCN(C(=O)Nc3c(Cl)cccc3Cl)CC2)cc1)C1CSCN1` (centres unmarked) [Compound 48]: 3.55 µM.
`Cc1cc(C)c(NC(=O)N2CCC(c3ccc(NC(=O)c4ccccc4-c4ccc(C(F)(F)F)cc4)cc3)CC2)c(Br)c1` [Compound 118] showed an IC50 of 0.631 µM.
As for `Nc1ccccc1C(=O)Nc1ccc(C2CCN(C(=O)Nc3c(Cl)cccc3Cl)CC2)cc1` [Compound 10], half-maximal inhibition (IC50) required 0.324 µM.
